Test [1] relates to Mus musculus. Briefly: Anticonvulsant activity in Swiss albino mouse assessed as duration of pentylenetetrazole-induced seizures at 10 mg/kg administered 1 hr before PTZ challenge. It is filed as functional.
In test [2] the test system is Mus musculus. The experiment in a line: Anticonvulsant activity in Swiss albino mouse assessed as protection against pentylenetetrazole-induced seizures at 10 mg/kg administered 1 hr before PTZ challenge relative to control. The format is functional.

Consider `Fc1ccc(/C=C/c2nc3ccccc3n3c(-c4ccc(-c5ccccc5)cc4)nnc23)cc1`, for which the Activity in the test with Mus musculus [1] was 8 s; in the test on Mus musculus [2], 0%.

As to `CCOc1ccc(-c2nnc3c(/C=C/c4ccc(Cl)cc4)nc4ccccc4n23)cc1O`, the Activity was determined as 12 s with Mus musculus [1] and 0% with Mus musculus [2].

`COc1ccc(/C=C/c2nc3ccccc3n3c(-c4ccc(F)cc4)nnc23)cc1`: the values for the Activity in the test with Mus musculus [1] and in the test with Mus musculus [2] were 0 s and 100%, respectively.

`COc1ccc(/C=C/c2nc3ccccc3n3nnnc23)cc1`: the Activity in the test with Mus musculus [1] was found to be 11 s; in the test with Mus musculus [2], 0%.

With `Fc1ccc(/C=C/c2nc3ccccc3n3nnnc23)cc1`, the results for the Activity in the test with Mus musculus [1] and in the test on Mus musculus [2] were 0 s and 100%, respectively.

Regarding `COc1ccc(/C=C/c2nc3ccccc3n3c(C(F)(F)F)nnc23)cc1`, the Activity with Mus musculus [1] was 0 s; with Mus musculus [2] it was 100%.

Turning to `Cc1nnc2c(/C=C/c3cccc([N+](=O)[O-])c3)nc3ccccc3n12`, the Activity with Mus musculus [1] was 11 s; with Mus musculus [2], 0%.

In the case of `Cc1nnc2c(/C=C/c3ccc(F)cc3)nc3ccccc3n12`, the Activity is recorded as 0 s in the test on Mus musculus [1] and 100% with Mus musculus [2].

Take `O=[N+]([O-])c1cccc(/C=C/c2nc3ccccc3n3cnnc23)c1`: the Activity is listed as 12 s with Mus musculus [1] and 0% with Mus musculus [2].

For `COc1ccc(/C=C/c2nc3ccccc3n3c(C)nnc23)cc1`, the Activity in the test with Mus musculus [1] was determined as 14 s; with Mus musculus [2], 0%.

In the case of `COc1ccc2cc(/C=C/c3nc4ccccc4n4nnnc34)ccc2c1`, the Activity in the test with Mus musculus [1] is 8 s; in the test with Mus musculus [2], 0%.

Take `C(=C\c1nc2ccccc2n2nnnc12)/c1ccccc1`: the Activity stood at 0 s in the test with Mus musculus [1] and 100% in the test on Mus musculus [2].

Consider `COc1ccc2cc(/C=C/c3nc4ccccc4n4c(C(F)(F)F)nnc34)ccc2c1`, for which the figures for the Activity in the test with Mus musculus [1] and in the test on Mus musculus [2] were 12 s and 0%, respectively.

As for `Fc1ccc(/C=C/c2nc3ccccc3n3cnnc23)cc1`, the Activity in the test on Mus musculus [1] is recorded as 0 s; with Mus musculus [2], 100%.

On to `Fc1ccc(/C=C/c2nc3ccccc3n3c(C(F)(F)F)nnc23)cc1`, for which the values for the Activity in the test on Mus musculus [1] and with Mus musculus [2] were 0 s and 100%, respectively.

For the compound `COc1ccc(-c2nnc3c(/C=C/c4ccc(Cl)cc4)nc4ccccc4n23)cc1`, the Activity in the test on Mus musculus [1] is recorded as 12 s; in the test on Mus musculus [2], 0%.

Regarding `O=[N+]([O-])c1cccc(/C=C/c2nc3ccccc3n3nnnc23)c1`, the figures for the Activity in the test with Mus musculus [1] and with Mus musculus [2] were 11 s and 0%, respectively.

On to `COc1ccc(/C=C/c2nc3ccccc3n3cnnc23)cc1`, for which the Activity with Mus musculus [1] is 14 s; in the test with Mus musculus [2], 0%.

The record behind these values is ChEMBL document CHEMBL1138556, “Synthesis of some new 4-styryltetrazolo[1,5-a]quinoxaline and 1-substituted-4-styryl[1,2,4]triazolo[4,3-a]quinoxaline derivatives as potent anticonvulsants” (2009).
